Read-outs that look alike come from different tables or passages of the source.
Assays:
[1] = tested on: human immunodeficiency virus type 1 (HIV-1); experiment: Inhibitory activity against HIV (EC50), cell-based luciferase reporter assay
From the text: […]. Experimental procedures were essentially as described by Connor et al. in Journal of Virology (1996), 70: 5306-5311 (Characterization of the functional properties of env genes from long-term survivors of human immunodeficiency virus type 1 infection), and Popik et al. in Journal of Virology (2002), 76: 4709-4722 (Human immunodeficiency virus type 1 uses lipid raft-colocalized CD4 and chemokine receptors for productive entry into CD4^+ T cells). It should be particularly appreciated that the virus contains two introduced mutations in the RT gene (K103N and Y181C, created by PCR mutagenesis) that render the virus highly resistant to current non-nucleoside HIV-1 drugs. Virus stocks were generated by cotransfection of plasmid DNA encoding VSV-G with vector pNL4-3Env(−)Luc(+) into 293T cells. Sixty-four hours after transfection, virus-containing medium was collected by centrifugation and stored frozen at −80° C.
HeLa cells were infected with the VSV-G pseudotyped virus in the presence of screening compounds in a 384-well microtiter plate format. Forty-eight hours after initial infection, lysis buffer and Luciferase Assay Reagent (Promega) was added to the cells and luciferase activity was determined by counting the resultant luminescence using a LJL luminometer. Since the luciferase gene is carried in the virus genome, its expression level directly reflects the virus replication level in the presence of a compound.
To evaluate the activity of the compounds against wild type HIV-1, the HeLa-JC53 cell line that expresses high levels of CD4 and CCR5 (see e.g., Platt et al. in Journal of Virology (1998), 72: 2855-2864: Effect of CCR5 and CD4 cell surface concentrations on infection by macrophagetropic isolates of human immunodeficiency virus type 1) was modified by isolation of a stable cell line that expresses luciferase under the control of the HIV-1 promoter (long terminal repeat, i.e., LTR). HIV-1 infection of this cell line stimulates the transcription of luciferase from the HIV-1 promoter and the luciferase gene expression level is proportional to the level of virus replication (Harrington et al. in Journal of Virology Methods (2000), 88: 111-115: Direct detection of infection of HIV-1 in blood using a centrifugation-indicator cell assay; and Roos et al. in Virology (2000), 273: 307-315: LuSIV cells: a reporter cell line for the detection and quantitation of a single cycle of HIV and SIV replication). Procedures for virus infection, compound testing and luciferase activity determination were the same as for the VSV-G pseudotyped HIV-1.

wild-type HIV RT = biological target: T1, wild-type HIV RT (Human immunodeficiency virus type 1 group M subtype B, UniProt P03366); experiment: IC50 for wild-type HIV RT; format: biochemical
T1 construct: IC50 is indicated in microM for wild-type HIV RT

[2] = Table 1, inhibitory activity against HIV, read-out: EC50

Compound | EC50 [1, 2] [µM] | EC50 ([1]; Human immunodeficiency virus 1) [µM] | IC50 (wild-type HIV RT; Table 1) [µM] | IC50 (wild-type HIV RT; Table 1, numeric value) [µM]
Cc1ccc(-c2nnc(SCC(=O)Nc3ccccc3Br)n2C)cc1 [compound 37] | > 100 |  |  | 
Cc1ccc(NCc2nnc(SCC(=O)Nc3ccc(C)cc3Br)n2-c2ccccc2)cc1 [compound 33] |  | > 100 | 10 to 100 | 
CC(=O)c1ccc(NC(=O)CSc2nnc(C)n2-c2ccc(C)cc2)cc1 [compound 41] |  | > 100 | 10 to 100 | 
Cc1nnc(SCC(=O)Nc2ccccc2)n1-c1ccccc1 [compound 49] | > 100 |  |  | 
Cc1ccc(NC(=O)C(C)Sc2nnc(C)n2-c2ccc(C)cc2)cc1 (stereo not drawn) [compound 45] | > 100 |  |  | 36.3
Cc1ccc(NC(=O)CSc2nnc(-c3ccccc3C)n2-c2ccccc2)c(Br)c1 [compound 52] |  | > 100 | 10 to 100 | 
Cc1ccc(NC(=O)CSc2nnc(-c3ccncc3)n2-c2ccccc2Cl)c(Br)c1 [compound 46] |  | > 100 | > 100 | 
Cc1ccc(-n2c(C)nnc2SCC(=O)Nc2ccc(C)c(Cl)c2)cc1 [compound 39] | > 100 |  |  | 
O=C(CSc1nnc(C2CCCCC2)n1-c1ccccc1)Nc1ccccc1Br [compound 34] |  | > 100 | 10 to 100 | 
Cc1ccc(-n2c(SCC(=O)Nc3ccc(C)cc3Br)nnc2-c2ccncc2)cc1 [compound 36] | > 100 |  |  | 
Cc1cccc(NC(=O)CSc2nnc(C)n2-c2ccccc2)c1 [compound 40] | > 100 |  | 10 to 100 | 
Cc1ccccc1NC(=O)CSc1nnc(-c2ccc(Cl)cc2)[nH]1 [compound 26] | 10 to 100 |  |  | 
Cc1cc(C)c(NC(=O)CSc2nnc(C)n2-c2ccccc2)c(C)c1 [compound 51] | > 100 |  |  | 
Cn1c(SCC(=O)Nc2ccccc2)nnc1-c1ccc(Br)cc1 [compound 27] | > 100 |  |  | 
O=C(CSc1nnc(-c2ccncc2)n1-c1ccccc1)Nc1ccccc1I [compound 24] | > 100 |  |  | 
Cc1ccc(NC(=O)CSc2nnc(COc3ccc(C#N)cc3)n2-c2ccccc2)c(Br)c1 [compound 44] |  | > 100 | 10 to 100 | 
Cc1ccc(NC(=O)CSc2nnc(C)n2-c2ccccc2)cc1C [compound 30] | > 100 |  |  | 
Cc1ccc(NC(=O)CSc2nnc(C)n2-c2ccccc2)cc1 [compound 47] | > 100 |  |  | 
Cc1ccc(NC(=O)CSc2nnc(Cc3ccccc3)n2C)c(Br)c1 [compound 29] | > 100 |  | 10 to 100 | 
Cc1nnc(SCC(=O)Nc2ccccc2C(F)(F)F)n1-c1ccccc1Cl [compound 23] | > 100 |  |  | 
O=C(CSc1nnc(-c2ccc(Cl)cc2)n1-c1ccccc1)Nc1ccccn1 [compound 25] | > 100 |  |  | 

Source: patent publication US20080249131A1, “NON-NUCLEOSIDE REVERSE TRANSCRIPTASE INHIBITORS” (priority 2002, published 2008)
